Measured values published in US5180724A, “Carboxamide amino acid heterobicyclic PAF antagonists” (British Bio-Technology Limited, priority 1991, dated 1993).

How the values were obtained:
[1] = system: PAF-induced hypotension in the rat; test: Reversal of PAF-induced hypotension in anaesthetised rats; format: in vivo, rat (male Sprague-Dawley); conditions: iv, i.v. bolus during PAF infusion 100 ng/kg/min i.v., mean blood pressure fall of 50 mmHg, read-out: ED50 (dose to cause a 50% reversal of the hypotensive PAF response)
Protocol: (§1) Compounds of general formula I inhibit PAF-induced functions in both the cellular and tissue levels by changing the PAF binding to its specific receptor site. The ability of compounds of general formula I to inhibit the binding of PAF to its specific receptor binding site on human platelet plasma membranes was measured according to Pharmacological Example 1. The ability of compounds of general formula I to reverse the hypotension caused by an infusion of PAF in rats was measured according to Pharmacology Example 2.
Male Sprague-Dawley rats (300-350 gms) were anaesthetised with a mixture of sodium pentobarbitone, 22.5 mg.kg^-1 and thiopental 62.5 mg.kg^-1. Through a midline incision in the neck, the trachea was cannulated and the animals breathed spontaneously. A carotid artery was cannulated for the measurement of blood pressure and this signal was used to trigger a rate meter to measure heart rate. Both jugular veins were cannulated: one for the infusion of PAF and the other for the bolus administration of test compounds.
PAF, 100 ng.kg^-1. min^-1 was infused i.v. until a sustained fall in mean blood pressure of 50 mmHg was achieved. […] The peak of this reversal was measured and the dose to cause a 50% reversal of the hypotensive PAF response (ED50) calculated by straight line interpolation and the results are presented in Table 2. Also presented in Table 2 is the result for a comparative example (N-cyclohexyl-N-methyl 4-(lH-imidazo[4,5-c]pyridin-1-ylmethyl)benzamide. This compound (a PAF antagonist described in EP-A-02606130) is not within the scope of the invention.

[2] = molecular target: T1, PAF receptor (specific receptor binding site on human platelet plasma membranes) (Homo sapiens, UniProt P25105); test: Inhibition of 3H-PAF binding to human platelet plasma membrane (receptor binding, filtration); conditions: 0.5 nM 3H-PAF, 0° C., 1 hour incubation
T1 construct: from tissue; host or cells: human platelets (platelet concentrates from a hospital blood bank), lysed plasma membranes
Protocol: as §1
The inhibition of ^3 H-PAF binding to human platelet plasma membrane by compounds of general formula I was determined by isotopic labelling and filtration techniques. Platelet concentrates were obtained from a hospital blood bank. These platelet concentrates (500-2500 ml.) were centrifuged at 800 rpm for 10 minutes in a SORVALL RC3B centrifuge to remove the red blood cells present. (The word SORVALL is a trade mark.) The supernatant was subsequently centrifuged at 3,000 rpm in a SORVALL RC3B centrifuge to pellet the platelets present. […]
The assay was conducted by preparing a series of Tris-buffered solutions of the selected antagonist of predetermined concentrations. […] Each washed residue was dried under vacuum on a sampling manifold and placed into vials containing 20 ml of OPTIPHASE MP scintillation fluid and the radioactivity counted in a liquid scintillation counter. […]

T1 sequence (P25105 whole entry): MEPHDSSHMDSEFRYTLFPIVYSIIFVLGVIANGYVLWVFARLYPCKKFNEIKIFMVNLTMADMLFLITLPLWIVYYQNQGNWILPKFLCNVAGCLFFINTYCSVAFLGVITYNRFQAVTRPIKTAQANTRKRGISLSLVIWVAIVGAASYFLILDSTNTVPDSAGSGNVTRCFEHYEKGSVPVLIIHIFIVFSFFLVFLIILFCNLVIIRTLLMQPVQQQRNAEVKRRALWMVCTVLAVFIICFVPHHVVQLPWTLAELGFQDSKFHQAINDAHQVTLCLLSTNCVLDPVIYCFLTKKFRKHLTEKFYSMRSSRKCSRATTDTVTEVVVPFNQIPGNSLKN

Compound | ED50 [1] | IC50 [2]
CCOC(=O)[C@H](CC(C)C)N(C)C(=O)c1ccc(Cn2c(C)nc3cnccc32)cc1 [2 (B), N-Methyl-N-L-leucinyl ethyl ester 4-(1H-2-methylimidazo[4,5-c]pyridylmethyl)benzamide] | 5 µg/kg | 0.01 µM
CCOC[C@H](CC(C)C)N(C)C(=O)c1ccc(Cn2c(C)nc3cnccc32)cc1 [3 (B), N-Methyl-N-L-leucinol ethyl ether 4-(lH-2-methylimidazo[4,5-c]pyridylmethyl)benzamide] | 6 µg/kg | 
CN(C(=O)c1ccc(Cn2cnc3cnccc32)cc1)C1CCCCC1 [Comparative Example, N-cyclohexyl-N-methyl 4-(lH-imidazo[4,5-c]pyridin-1-ylmethyl)benzamide, reference compound] | 150 µg/kg | 10 µM
